Reference: patent publication US20030134901A1, “Lipoxin compounds and their use in treating cell proliferative disorders” (priority 1993, published 2003)

What was measured:
A549 cells = experiment: A549 cell proliferation, MTT assay; format: cell-based, human; settings: for % inhibition: 10^−7 M, 72 hours at 37° C., mean ± SEM, 3 to 7 experiments
Protocol: A microculture 3,(4,5-dimethylthiazoyl-2-yl) 2,5 (diphenyl-tetrazolium bromide) (MTT) assay, (Marshall, N. J., et al. (1995) A critical assessment of the use of microculture tetrazolium assays to measure cell growth and function. Growth Regul. 5: 69-84.), was used to examine the actions of LXs and other eicosanoids on cell proliferation. A549 cells and fibroblasts from exponential-phase maintenance cultures were counted and dispensed within replicate 96-well culture plates in 100 μl volumes of medium (˜2000 cells/well). Following 24 hours at 37° C., the culture medium was removed, and fresh medium (100 μl) containing either the compounds (5-1000 nM) or vehicle (medium plus 0.15% ethanol) was added to 4 replicates for each condition studied and the culture plates were then incubated for up to 96 hours at 37° C. in a 5% CO2 atmosphere. At the end of this period, 25 μl of freshly prepared MTT in HBSS (5 mg/ml) was added to the wells and the plates were incubated for 4 hours at 37° C. Dye solution was aspirated, wells were washed once with HBSS and dye taken up by the cells was extracted in 100 μl of isopropyl alcohol:1 N HCl (96:4, v/v) and quantitated at 570 nm using a microplate reader (Molecular Devices, Menlo Park, Calif.). In some experiments, cells were grown in 12-well culture plates, treated as above and enumerated using a Neubauer hemocytometer. Viability was assessed routinely using trypan blue exclusion assay. For the A549 cells and fibroblasts, a linear relation was established for the MTT values and cell number within the range of the experiments shown (r=0.995, P<0.005). A549 cells grown for 72 hours in the presence of the compounds (5-1000 nM) or vehicle (0.15% EtOH) were lysed with 0.25 N NaOH and the cellular protein content was determined by applying the Bio-Rad (Richmond, Calif.) microassay method using bovine serum albumin as standard. The mean cellular protein content in resting A549 cells was 46.6±1.5 pg/cell.

[1] = target: T1, LXA4 specific binding sites of differentiated HL-60 cells (Homo sapiens, UniProt P25090); experiment: 3H-LXA4 specific binding to differentiated HL-60 cells; settings: for displacement of 3H-LXA4 specific binding: competition, competitor 300 nM where printed
T1 construct: endogenous in cells; host or cells: HL-60 cells differentiated with DMSO, retinoic acid or PMA; intact cells
T1 sequence (P25090 1-351): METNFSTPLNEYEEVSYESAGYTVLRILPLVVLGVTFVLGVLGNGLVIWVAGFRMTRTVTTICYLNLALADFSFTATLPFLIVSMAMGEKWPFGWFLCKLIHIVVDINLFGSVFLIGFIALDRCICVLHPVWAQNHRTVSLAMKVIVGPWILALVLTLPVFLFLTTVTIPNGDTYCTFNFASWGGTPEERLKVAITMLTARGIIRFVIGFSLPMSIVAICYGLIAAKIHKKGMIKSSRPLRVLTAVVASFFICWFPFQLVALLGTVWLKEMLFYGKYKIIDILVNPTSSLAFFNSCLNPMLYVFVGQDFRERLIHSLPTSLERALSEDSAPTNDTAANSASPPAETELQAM
Protocol: Preparation of [11,12-^3H]LXA4. Tritiation of 11,12-acetylenic LXA4 methyl ester was carried out under a custom tritiation service (NET-259:92-2326) by New England Nuclear (Boston, Mass.). Briefly, 11,12-acetylene methyl ester was characterized by UV absorbance and reverse-phase HPLC as in (Nicolaou, K. C. et al. (1985) J. Am. Chem. Soc. 107:7515) and exposed to tritium atmosphere in methylene chloride at room temperature. This incubation was stirred in the presence of Lindlar catalyst (1.0 mg from Fluka Chemicals) for˜1 h. The resulting mixture was stored in methanol and isolated using RP-HPLC. Tritiated products were chromatographed as methyl esters utilizing a gradient HPLC system equipped with a photodiode array rapid spectral detector (Serhan, C. N., Methods in Enzymology: Arachidonate Related Lipid Mediators, in Murphy R. C., Fitzpatrick, F. (eds.), vol. 187. Orlando, Fla., Academic, (1990), p. 167). This mixture contained both [11,12-^3H]LXA4 and [11,12-^3H]-11-trans-LXA4 methyl esters (˜1:3 ratio) as determined by coelution with synthetic standards. After RP-HPLC, fractions containing [11,12-^3H]LXA4 were collected, and extracted into ethyl acetate. The free acid was prepared by LiOH saponification (Fiore, S. et al. (1992) J. Biol. Chem. 267:16168). Material from these fractions, when injected into UV-electrochemical detection HPLC, gave greater than 90% of radioactivity associated with a tetraene-containing product that coeluted with synthetic LXA4. Materials that eluted with the retention time of authentic LXA4 in two HPLC systems were taken for binding experiments. The specific activity calculated for [11,12-^3H]LXA4 was 40.5 Ci/mmole.
Cell cultures and differentiation. HL-60 cells were seeded in RPMI medium supplemented with 100 U/ml penicillin, 100 μg/ml streptomycin, and 10% fetal calf serum (Hyclone, Logan, Utah), incubated at 37° C. with 5% CO2 atmosphere in 250 ml flasks. Individual flasks containing ˜[…] next received dimethyl sulfoxide (DMSO) (1.12% v/v, 120 h) or retinoic acid (RA) (1 μM, 120 h) or phorbol myristate acetate (PMA) (20 nM, 48 h). Before performing binding assays, cells were washed twice in phosphate buffered saline (PBS), Ca^2+- and Mg^2+-free, enumerated and suspended at 20×10^6 cells/ml in Tris buffer (10 mM), pH 7.4 (Fiore, S. et al.(1992) J. Biol. Chem. 267:16168). Nitro blue tetrazolium reduction was performed to monitor induction of polymorphonuclear phenotype as in (Imaizumi, M. and Breitman, T. R. (1986) Blood 67:1273), and cell adherence was determined for induction of macrophage-like phenotype (Collins, S. J. (1987) Blood 70:1273). Human umbilical vein endothelial cells (HUVEC) maintained in culture third passage were obtained from Dr. M. Gimbrone (Brigham and Women's Hospital Department of Pathology).
Ligand binding. ^3H-LXA4 and ^3H-LTB4 binding was performed essentially as in Fiore, S. et al.(1992) J. Biol. Chem. 267:16168. After suspending cells in Tris buffer 10 mM (pH 7.4, Ca^2+ 2.5 mM, Mg^2+ 1.2 mM), aliquots (0.5 ml) were incubated (20 min at 4° C.) with ^3H- ligands alone (0.3 nM) or in the presence of increasing concentrations of homoligands or other compounds (3-300 nM). The incubations were rapidly centrifuged (60 sec, 12,000 g) on silicon oil (d=1.028), and cell-associated radioactivity was determined by liquid scintillation counting (Wallac 1409, Pharmacia, Piscataway, N.J.). Binding experiments with HUVEC cells were performed in 12 well plates with 3.5×10^5 cells/well. After 10 min, wells were washed twice with PBS and cell-associated label was recovered by adding glacial acetic acid (0.5 ml). Results obtained from these assays were submitted for further analysis using the Ligand program (Elsevier-Biosoft, Cambridge, UK).

PMA-treated HL-60 cells = experiment: Lipoxin metabolism / bio-half-life assay with phorbol ester-treated HL-60 cells; format: in vitro ADME, human; settings: at times up to two hours
Protocol: HL-60 cells were purchased from American Type Culture Collection (Rockville, Md.), and other cell culture reagents were from GIBCO (Grand Island, N.Y.). Versene (EDTA) was from Whittaker Bioproducts (Walkersville, Md.). Synthetic 11,12-acetylenic LXA4 methyl ester and LXs were from Cascade Biochemical (Reading, U.K.). 15(S)-15-m-PGE1, PGE1, and 5-HETE were from Cayman Chemical Co. (Ann Arbor, Mich.). [11,12-^3H]LXA4 was prepared from 11,12-acetylenic LXA4 using Lindlar catalyst as a custom tritiation (NET-259, lot 0 2793-275, New England Nuclear, Boston, Mass.). Tritiated products were isolated using RP-HPLC (Fiore et al. (1992) J. Biol. Chem. 267:16168; Serhan, C. N. (1990) Meth. Enzymol. 187:167). Methoxyamine and NAD were from Sigma Chemical Company (St. Louis, Mo.). Manganese dioxide and Adams reagent were from Aldrich Chemical Co. (Milwaukee, Wis.).
Human PMN were obtained from healthy volunteers by gradient centrifugation of heparinized fresh venous blood (Böyum, A. ([…]) Scand. J. Clin. Lab. Invest. 21:77). HL-60 cells were seeded in RPMI supplemented with penicillin (100 U/ml), streptomycin (100 μ/ml), fetal bovine serum (10%) (Hyclone, Logan, Utah) and incubated (37° C. with 5% CO2 atmosphere) in plastic 250 ml flasks. Individual flasks containing […] HL-60 cells/ml were incubated in the presence or absence of phorbol 12-myristate 13-acetate (PMA) (10 or 16 nM, 24-27 h) and adherence was monitored for induction of macrophage-like phenotype as in Collins, S. J. (1987) Blood 70:1233. […]
Incubations with eicosanoids were stopped with cold methanol containing either PGB2 or 5-HETE as internal standards (5-HETE was used when 15-oxo-ETE was quantified). […] Formation of 15-oxo-ETE by 100,000 g supernatants (cf. Agins, A. P. et al. (1987) Agents Actions 21:397; Xun, C-Q. et al.(1991) Biochem. J. 279:553; and Sok, D-E. et al. (1988) Biochem. Biophys. Res. Commun. 156:524) was quantified after RP-HPLC using an ODS column (4.6 mm×25 cm) eluted with methanol/H2O/acetic acid (70:30:0.01, v/v/v) monitored at 280 nm with a flow rate of 1 ml/min. […] On-line spectra were recorded using a diode array detector (Hewlett-Packard 1040M series II) equipped with HPLC^3D ChemStation software (DOS series). […]
The “bio-half-life” of compounds 1-8 was assessed using phorbol ester-treated human promyelocytic leukemia (HL-60) cells as described in Example 2. […]

Compound | % inhibition (A549 cells) | displacement of 3H-LXA4 specific binding [1] | also measured
CCCCC[C@@H](O)/C=C/C=C\C=C\C=C\C(O)C(O)CCCC(=O)O (stereo in doubt) [15-epi-LXA4, 15R-5,6,15-trihydroxy-7,9,13-trans-11-cis-eicosatetraenoic acid] | 20.1 ± 1.9% | – | inhibition of A549 cell growth compared with LXA4 (A549 cells; equimolar levels (100 nM)): to a similar extent as LXA4
CCCCC[C@@H](O)C(O)/C=C/C=C/C=C\C=C\C(O)CCCC(=O)O (stereo in doubt) [15-epi-LXB4, 15R-5,14,15-trihydroxy-6,10,12-trans-8-cis-eicosatetraenoic acid] | 79.3 ± 0.3% | – | inhibition proliferation (A549 cells; equimolar levels (100 nM), Table 1): ~80%
CCCCC/C=C\C\C=C/C=C/C=C/[C@@H](SC[C@H](NC(=O)CC[C@H](N)C(=O)O)C(=O)NCC(=O)O)[C@@H](O)CCCC(=O)O [LTC4] | – | – | decrease of 3H-LXA4 specific binding ([1]; added in 3 log molar excess): ~30%
COc1ccc(/C=C/CCCCOc2cccc(OCCCCC(=O)O)c2CCC(=O)O)cc1 [ONO-4057] | – | did not displace | –
cyclohexyl-LXA4 [compound 4] | – | – | recovery in the incubation medium (bio-half-life) (PMA-treated HL-60 cells): quantitatively recovered
trihydroxyheptanoic acid (methyl ester) | – | Neither LXB4, LTB4, nor trihydroxyheptanoic acid (methyl ester) (300 nM) were able to displace | –
